Measured values from US20250179059A1 (The Regents of the University of California, priority 2021, published 2025).

Experiments:
[1] = target: T1, human BRD4 bromodomain II (Homo sapiens, UniProt O60885); experiment: Bromodomain binding assay (AlphaScreen), BRD4 BDII; conditions: AlphaScreen assay, Table C2; read-out: BRD4 BDII IC50
T1 construct: human BRD4 bromodomain II [based on Genbank NM_058243, residues 349-460]; host or cells: E. coli
Outline: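 Read-out is AlphaScreen signal (ex 680 nm, em 520-620 nm) from streptavidin donor beads on a biotinylated acetylated histone H4 (aa 1-21) peptide and nickel acceptor beads on the His6-tagged bromodomain. IC50 values come from curve fits of percentage peptide binding against compound concentration.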

[2] = test system: human SKM-1 acute myeloid leukemia cells; experiment: SKM-1 antiproliferation cell-based assay (ATPlite); conditions: Homo sapiens, SKM-1, 96 h, SKM-1 antiproliferation assay, 4 days, Table C2
Outline: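 Log-phase cells in RPMI 1640/15% FBS were seeded at 34722 cells/mL and exposed for 4 days to nine-concentration DMSO serial dilutions in triplicate. Viability was read as ATP luminescence (ATPlite 1step), and IC50 values came from variable-slope non-linear regression.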

SMILES | IC50 [1] | GI50 [2]
Cn1ccn(-c2ccc(-c3cc(F)cc(-c4ccnc(N5CCNC(C)(C)C5)c4)c3O)cc2Cl)c1=O [Example 563, 1-(3-chloro-3′-(2-(3,3-dimethylpiperazin-1-yl)pyridin-4-yl)-5′-fluoro-2′-hydroxy-[1,1′-biphenyl]-4-yl)-3-methyl-1H-imidazol-2(3H)-one] | 0.01 to 1 nM | 0.3 to 30 nM
Cc1cc(-c2cc(-c3cn[nH]c3)nc(N3CCNCC3)c2)c(O)c(-c2ccc(-n3ccn(C)c3=O)c(Cl)c2)c1 [Example 566] | 0.01 to 1 nM | 0.3 to 30 nM
Cn1ccn(-c2ccc(-c3cc(F)cc(-c4cc(-c5ccn[nH]5)cc(N5CCNCC5)c4)c3O)cc2Cl)c1=O [Example 568] | 0.01 to 1 nM | 0.3 to 30 nM
Cc1cc(-c2cc(-c3ccn[nH]3)cc(N3CCNCC3)c2)c(O)c(-c2ccc(-n3ccn(C)c3=O)c(Cl)c2)c1 [Example 569] | 1 to 10 nM | 30 to 300 nM
Cc1cc(-c2cc(-c3cn[nH]c3)cc(N3CCNCC3)c2)c(O)c(-c2ccc(-n3ccn(C)c3=O)c(Cl)c2)c1 [Example 570] | 1 to 10 nM | 0.3 to 30 nM
Cn1ccn(-c2ccc(-c3cc(F)cc(-c4cc(-c5cn[nH]c5)cc(N5CCNCC5)c4)c3O)cc2Cl)c1=O [Example 571] | 1 to 10 nM | 0.3 to 30 nM
Cn1ccn(-c2ccc(-c3cc(F)cc(-c4cncc(N5CC6CNC(C6)C5)c4)c3O)cc2Cl)c1=O (stereo not shown) [Example 572] | 0.01 to 1 nM | 0.3 to 30 nM
Cn1ccn(-c2ccc(-c3cc(F)cc(-c4cc(N5CC6CCC(C5)N6)c5cn[nH]c5c4)c3O)cc2Cl)c1=O [Example 573] | 0.01 to 1 nM | 0.3 to 30 nM
C[C@@H]1CN(c2cc(-c3cc(F)cc(-c4ccc(-n5ccn(C)c5=O)c(Cl)c4)c3O)cc3[nH]ncc23)C[C@H](C)N1 [Example 577] | 0.01 to 1 nM | 0.3 to 30 nM
C[C@@H]1CN(c2cc(-c3cc(F)cc(-c4ccc(-n5ccn(C)c5=O)c(Cl)c4)c3O)cc3c2ccn3C)CCN1 [Example 579, (R)-1-(3-chloro-5′-fluoro-2′-hydroxy-3′-(1-methyl-4-(3-methylpiperazin-1-yl)-1H-indol-6-yl)-[1,1′-biphenyl]-4-yl)-3-methyl-1H-imdazol-2(3H)-one] | 0.01 to 1 nM | 0.3 to 30 nM
C[C@@H]1CN(c2cc(-c3cc(F)cc(-c4ccc(-n5ccn(C)c5=O)c(Cl)c4)c3O)cc3c2cnn3C)CCN1 [Example 580] | 0.01 to 1 nM | 0.3 to 30 nM
CCN1CCN(c2cc(-c3cc(F)cc(-c4ccc(-n5ccn(C)c5=O)c(Cl)c4)c3O)cc3[nH]ncc23)CC1 [Example 582] | 0.01 to 1 nM | 0.3 to 30 nM
C[C@@H]1CN(c2cc(-c3cc(F)cc(-c4ccc(-n5ccn(C)c5=O)c(Cl)c4)c3O)cn3ccnc23)CCN1 [Example 584] | 0.01 to 1 nM | 0.3 to 30 nM
CC(C)N1CCN(c2cc(-c3cc(F)cc(-c4ccc(-n5ccn(C)c5=O)c(Cl)c4)c3O)cc3[nH]ncc23)CC1 [Example 587, 1-(3-chloro-5′-fluoro-2′-hydroxy-3′-(4-(4-isopropylpiperazin-1-yl)-1H-indazol-6-yl)-[1,1′-biphenyl]-4-yl)-3-methyl-1H-imidazol-2(3H)-one] | 1 to 10 nM | 0.3 to 30 nM
CN1CCN(c2cc(-c3cc(F)cc(-c4ccc(-n5ccn(C)c5=O)c(Cl)c4)c3O)cc3[nH]ncc23)CC1 [Example 588, 1-(3-chloro-5′-fluoro-2′-hydroxy-3′-(4-(4-methylpiperazin-1-yl)-1H-indazol-6-yl)-[1,1′-biphenyl]-4-yl)-3-methyl-1H-imidazol-2(3H)-one] | 0.01 to 1 nM | 0.3 to 30 nM
Cn1ccn(-c2ccc(-c3cc(F)cc(-c4cc(N5CCNC(C)(C)C5)c5cn[nH]c5c4)c3O)cc2Cl)c1=O [Example 589, 1-(3-chloro-3′-(4-(3,3-dimethylpiperazin-1-yl)-1H-indazol-6-yl)-5′-fluoro-2′-hydroxy-[1,1′-biphenyl]-4-yl)-3-methyl-1H-imidazol-2(3H)-one] | 1 to 10 nM | 0.3 to 30 nM
Cn1ccn(-c2ccc(-c3cc(F)cc(-c4cc(N5CCOCC5)c5cn[nH]c5c4)c3O)cc2Cl)c1=O [Example 590, 1-(3-chloro-5′-fluoro-2′-hydroxy-3′-(4-morpholino-1H-indazol-6-yl)-[1,1′-biphenyl]-4-yl)-3-methyl-1H-imidazol-2(3H)-one] | 1 to 10 nM | 30 to 300 nM

Continued, values first:

IC50 [1] | GI50 [2] | SMILES
0.01 to 1 nM | 0.3 to 30 nM | Cc1cc(-c2ccc(-n3ccn(C)c3=O)c(Cl)c2)c(O)c(-c2cc(N3CCNCC3)c3nccnc3c2)c1 [Example 562, 1-(3-chloro-2′-hydroxy-5′-methyl-3′-(8-(piperazin-1-yl)quinoxalin-6-yl)-[1,1′-biphenyl]-4-yl)-3-methyl-1H-imidazol-2(3H)-one]
0.01 to 1 nM | 0.3 to 30 nM | Cc1cc(-c2ccc(-n3ccn(C)c3=O)c(Cl)c2)c(O)c(-c2cc(N3CC[C@H](N)C3)c3nc[nH]c3c2)c1 [Example 564]
0.01 to 1 nM | 0.3 to 30 nM | Cc1cc(-c2ccc(-n3ccn(C)c3=O)c(Cl)c2)c(O)c(-c2cc(N3CCNCC3)c3nn[nH]c3c2)c1 [Example 565]
1 to 10 nM | 0.3 to 30 nM | Cc1cc(-c2ccc(-n3ccn(C)c3=O)c(Cl)c2)c(O)c(-c2cc(N3CCN[C@H](C)C3)c3cc[nH]c3c2)c1 [Example 567]
0.01 to 1 nM | 0.3 to 30 nM | Cc1cc(-c2ccc(-n3ccn(C)c3=O)c(Cl)c2)c(O)c(-c2cc(N3CCN[C@H](C)C3)c3nccnc3c2)c1 [Example 574]
0.01 to 1 nM | 0.3 to 30 nM | Cc1cc(-c2ccc(-n3ccn(C)c3=O)c(Cl)c2)c(O)c(-c2cc(N3CC[C@H](N)C3)c3nccnc3c2)c1 [Example 575]
0.01 to 1 nM | 0.3 to 30 nM | C[C@@H]1CN(c2cc(-c3cc(F)cc(-c4ccc(-n5ccn(C)c5=O)c(Cl)c4)c3O)cc3c2ncn3C)CCN1 [Example 576]
0.01 to 1 nM | 0.3 to 30 nM | Cn1ccn(-c2ccc(-c3cc(F)cc(-c4cc(N5CCC[C@H](N)C5)c5cn[nH]c5c4)c3O)cc2Cl)c1=O [Example 578]
0.01 to 1 nM | 30 to 300 nM | Cn1ccn(-c2ccc(-c3cc(F)cc(-c4cc(N5CCC(N)CC5)c5cn[nH]c5c4)c3O)cc2Cl)c1=O [Example 581]
1 to 10 nM | 0.3 to 30 nM | CN[C@H]1CCN(c2cc(-c3cc(F)cc(-c4ccc(-n5ccn(C)c5=O)c(Cl)c4)c3O)cc3[nH]ncc23)C1 [Example 583]
1 to 10 nM | 0.3 to 30 nM | Cc1cc(-c2ccc(-n3ccn(C)c3=O)c(Cl)c2)c(O)c(-c2cc(N3CCN[C@H](C)C3)c3cn[nH]c3c2)c1 [Example 585, (R)-1-(3-chloro-2′-hydroxy-5′-methyl-3′-(4-(3-methylpiperazin-1-yl)-1H-indazol-6-yl)-[1,1′-biphenyl]-4-yl)-3-methyl-1H-imidazol-2(3H)-one]
1 to 10 nM | 0.3 to 30 nM | Cn1ccn(-c2ccc(-c3cc(F)cc(-c4cc(N5CCC[C@@H](N)C5)c5cn[nH]c5c4)c3O)cc2Cl)c1=O [Example 586, (R)-1-(3′-(4-(3-aminopiperidin-1-yl)-1H-indazol-6-yl)-3-chloro-5′-fluoro-2′-hydroxy-[1,1′-biphenyl]-4-yl)-3-methyl-1H-imidazol-2(3H)-one]
0.01 to 1 nM | 0.3 to 30 nM | C[C@@H]1CN(c2cc(-c3cc(F)cc(-c4ccc(-n5ccn(C)c5=O)c(Cl)c4)c3O)cc3cccnc23)CCN1 [Example 591, (R)-1-(3-chloro-5′-fluoro-2′-hydroxy-3′-(8-(3-methylpiperazin-1-yl)quinolin-6-yl)-[1,1′-biphenyl]-4-yl)-3-methyl-1H-imidazol-2(3H)-one]
1 to 10 nM | 0.3 to 30 nM | CCC[C@@H]1CN(c2cc(-c3cc(F)cc(-c4ccc(-n5ccn(C)c5=O)c(Cl)c4)c3O)cc3[nH]ncc23)CCN1 [Example 592, (R)-1-(3-chloro-5′-fluoro-2′-hydroxy-3′-(4-(3-propylpiperazin-1-yl)-1H-indazol-6-yl)-[1,1′-biphenyl]-4-yl)-3-methyl-1H-imidazol-2(3H)-one]
0.01 to 1 nM | 0.3 to 30 nM | Cn1ccn(-c2ccc(-c3cc(F)cc(-c4cc(N5CC[C@@H](N)C5)c5cn[nH]c5c4)c3O)cc2Cl)c1=O [Example 593, (R)-1-(3′-(4-(3-aminopyrrolidin-1-yl)-1H-indazol-6-yl)-3-chloro-5′-fluoro-2′-hydroxy-[1,1′-biphenyl]-4-yl)-3-methyl-1H-imidazol-2(3H)-one]
0.01 to 1 nM | 0.3 to 30 nM | CC[C@@H]1CN(c2cc(-c3cc(F)cc(-c4ccc(-n5ccn(C)c5=O)c(Cl)c4)c3O)cc3[nH]ncc23)CCN1 [Example 594, (R)-1-(3-chloro-3′-(4-(3-ethylpiperazin-1-yl)-1H-indazol-6-yl)-5′-fluoro-2′-hydroxy-[1,1′-biphenyl]-4-yl)-3-methyl-1H-imidazol-2(3H)-one]
1 to 10 nM | 0.3 to 30 nM | C[C@H]1CN(c2cc(-c3cc(F)cc(-c4ccc(-n5ccn(C)c5=O)c(Cl)c4)c3O)cc3[nH]ncc23)CCN1 [Example 595, (S)-1-(3-chloro-5′-fluoro-2′-hydroxy-3′-(4-(3-methylpiperazin-1-yl)-1H-indazol-6-yl)-[1,1′-biphenyl]-4-yl)-3-methyl-1H-imidazol-2(3H)-one]
10 to 100 nM | 300 to 3000 nM | C[C@H]1CCCN(c2cc(-c3cc(F)cc(-c4ccc(-n5ccn(C)c5=O)c(Cl)c4)c3O)cc3[nH]ncc23)C1 [Example 596, (S)-1-(3-chloro-5′-fluoro-2′-hydroxy-3′-(4-(3-methylpiperidin-1-yl)-1H-indazol-6-yl)-[1,1′-biphenyl]-4-yl)-3-methyl-1H-imidazol-2(3H)-one]
